Data published in patent US5827837A, “Polyanion anti-inflammatory agents” (priority 1996, dated 1998).
Entries after “also recorded” stand apart in the source; their conditions may differ.

Legend:
[1] = target: T1, E-selectin-lg fusion protein (Homo sapiens, UniProt P16581); test: Competition ELISA: binding of E-selectin-Ig to immobilized BSA-sLe^x; conditions: BSA-sLe^x competition ELISA
T1 construct: Each selectin-lg contains the lectin domain, epidermal growth factor domain, and one (L-selectin-lg), two (P-selectin-lg) or six (E-selectin-lg) complement regulatory repeats; made in house
Text: Selectin-lg fusion proteins are recombinant chimeric molecules containing extracellular regions of selectins coupled to the hinge, CH2, and CH3 regions of human IgG1 (Aruffo, A., et al., Cell, 67:35, 1991; Walz, G., et al., Science, 250:1132, 1990). Each selectin-lg contains the lectin domain, epidermal growth factor domain, and one (L-selectin-lg), two (P-selectin-lg) or six (E-selectin-lg) complement regulatory repeats of the parent molecules. DNAs encoding selectin-Ig inserted in pCDM7 allowed transient expression of recombinant proteins in COS cells as previously described (Seed, B., et al., Proc. Natl. Acad. Sci., U.S.A., 84:3365, 1987; Aruffo, A., Current Protocols In Molecular Biology, eds. Ausubel, F. M., et al, 16:13.1, Greene Publishing Associates and Wiley-lnterscience, New York, N.Y., 1992). These DNAs were also ligated into pNUT (Palmiter, R. D., et al, Cell, 50:435, 1987) for amplification and stable expression in BHK cells. The fusion proteins were affinity purified from culture media using protein A (Pierce Chemical Company, Rockford, Ill.) or protein G (Pharmacia, Piscataway, N.J.) Sepharose, as previously described (Aruffo, A., et al., Cell, 67:35, 1991; Aruffo, A., Current Protocols In Molecular Biology, eds. Ausubel, F. M., et al, supra, 1992). Competition binding ELISAs using P- and E-selectin-lg were performed essentially as described (Nelson, R. M., et al., J. Clin. Invest., 91:1157, 1993), except that the assay buffer was 20 mM HEPES pH 7.4, 150 mM NaCl, 2 mM CaCl2, and 0.25 mM thimerosal, containing 10 mg/ml BSA, protease-free, (Miles Inc., Kankakee, Ill.). Selectin concentrations were from 10 to 30 nM. […] To increase L-selectin binding, an assay similar to that previously described was used (Foxall, C., et al., J. Cell Biol., 117:895, 1992), in which the L-selectin-lg (10-20 nM) was allowed to form aggregates with HRP-conjugated anti-lg antibody for 30 minutes prior to addition of inositols and incubation on the BSA-sLe^x -coated plate. IC50 values were calculated by fitting binding data to the equation: fraction of maximal binding=IC50 […] using nonlinear least squares analysis software (Origin, Microcal Inc, Northampton, Mass.). InsP6 (dodecasodium salt), InsS6 (hexapotassium salt), myo-inositol 1 monophosphate (cyclohexylammonium salt), and myo-inositol were from Sigma Chemical Company (St. Louis, Mo.). Stock solutions were prepared daily in 0.9% NaCl and sterilized by 0.22 μm filtration. InsP6 solutions were adjusted at pH 7.4 with HCl.
L-, P-, or E-selectin-lg fusion proteins were incubated for 2-3 hours on microtiter plates coated with the neoglycoprotein BSA-sLe^x, the plates washed, and bound selectin-lg was detected using a peroxidase-conjugated antibody directed against the lg portion and a chromogenic substrate. To determine blocking activity, solution-phase lnsP6 (.circle-solid.), InsS6 (.largecircle.), or inositol (.box-solid.) at the indicated concentrations were added to the solutions containing selectin-Ig fusion proteins prior to transfer to microtiter plates (competition ELISA).

[2] = test system: E-selectin (E-COS); test: PMN adhesion to E-selectin transfected COS cells (E-COS); type: cell-based, human; conditions: 0.5 mM
Protocol: COS-1 cells were transfected as described (Seed, B., et al., Proc. Natl. Acad. Sci., U.S.A., 84:3365, 1987; Aruffo, A., Current Protocols In Molecular Biology, eds. supra, 1992) with pCDM7/pCDM8 expression vectors containing the full-length E-, P- and L-selectin cDNA. Transfected COS-1 cells were seeded on gelatin coated coverslips.

[3] = test system: PMN within the peritoneal cavity; test: Thioglycollate-induced peritoneal inflammation, PMN accumulation; type: in vivo, mice (Balb/c); conditions: mice
[4] = test system: PMN within the peritoneal cavity; test: Zymosan-induced peritoneal inflammation, PMN accumulation; type: in vivo, mice (Balb/c); conditions: mice
Protocol: Mice (Balb/c males, 4-5 weeks old, 20-24 grams) were injected i.p. with 1 ml of 3% thioglycollate broth (lot #622462, Clinical Standard Laboratories, Inc., Rancho Dominguez, Calif.) left panel, or 0.5 mg of zymosan (Sigma) in 1 ml of sterile, pyrogen-free saline (Abbott Laboratories, North Chicago, Ill.), (FIG. 4, right panel). Control animals were injected i.p. with 1 ml of sterile pyrogen-free saline. After 40 and 80 min the animals received i.v. injections of 0.2 ml of sterile saline with or without InsP6 (total of 80 μmol/kg) or inositol (400 μmol/kg). Mice were sacrificed at 120 min and PMN within the peritoneal cavity were collected by lavage with 10 ml of ice-cold PBS containing 10 U/ml of heparin. After red blood cell lysis, the cells were counted in a hemocytometer (2 separate counts per sample, in triplicate). The percentage of PMN was assessed by counting cytospin preparations (two counts per slide, 300 cells per count) stained with Dif-Quick stain (Baxter, McGaw Park, Ill). Data are expressed as the mean ±s.d. of three separate experiments, with 5-6 animals per group in each experiment except for the group injected with saline i.p. that was constituted by 2 animal per experiment. […]

[5] = test system: peripheral blood PMN; test: Number of peripheral blood PMN; conditions: in vivo
Text: In the first model, mice were given intraperitoneal (i.p.) injections of 3% thioglycollate broth (FIG. 4, left panel) which results in an accumulation of PMN, the early phase of which is thought to depend in large part on L-(Lewinsohn, D. M., et al., J. Immunol., 138:4313, 1987; Watson, S. R., et al., Nature, 349:164, 1991), and P-selectin (Mulligan, M. S., et al., J. Clin. Invest., 90:1600, 1992). […] In a rat model of lung inflammation involving intratracheal instillation of endotoxin (Ulich, T. R., et al., Am. J. Pathol, 138:1485, 1991), InsP6 (i.v. injections at 2 and 4 hours, 40 μmol/kg total) reduced the number of PMN recovered in broncho-alveolar lavage fluid at 6 hours (59±8% inhibition, 2 experiments). The number of peripheral blood PMN was not modified by InsP6 treatment.

[6] = Toxic effects after injection, applicant's studies; type: in vivo

T1 sequence (P16581 with tags, fused parts or gaps limits assumed): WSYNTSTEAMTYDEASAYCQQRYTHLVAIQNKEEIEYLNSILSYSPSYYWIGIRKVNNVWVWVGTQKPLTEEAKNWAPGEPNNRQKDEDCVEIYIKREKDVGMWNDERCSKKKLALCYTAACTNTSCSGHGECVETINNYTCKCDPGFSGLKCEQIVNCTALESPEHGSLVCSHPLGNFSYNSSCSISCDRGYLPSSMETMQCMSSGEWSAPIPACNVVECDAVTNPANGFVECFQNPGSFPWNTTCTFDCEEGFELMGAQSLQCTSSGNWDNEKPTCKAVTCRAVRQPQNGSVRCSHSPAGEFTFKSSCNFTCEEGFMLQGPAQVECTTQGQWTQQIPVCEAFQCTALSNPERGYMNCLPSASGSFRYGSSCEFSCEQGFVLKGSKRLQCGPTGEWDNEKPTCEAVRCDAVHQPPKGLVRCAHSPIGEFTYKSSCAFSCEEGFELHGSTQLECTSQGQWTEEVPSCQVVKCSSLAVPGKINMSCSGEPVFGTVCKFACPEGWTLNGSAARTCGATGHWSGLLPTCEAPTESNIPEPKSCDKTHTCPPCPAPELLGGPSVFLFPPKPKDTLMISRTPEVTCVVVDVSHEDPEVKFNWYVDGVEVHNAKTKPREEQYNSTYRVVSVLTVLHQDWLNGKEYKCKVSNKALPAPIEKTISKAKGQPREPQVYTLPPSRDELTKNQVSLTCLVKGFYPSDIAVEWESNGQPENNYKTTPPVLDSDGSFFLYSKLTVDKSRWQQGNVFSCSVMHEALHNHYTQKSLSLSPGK

O=P(O)(O)O[C@H]1[C@H](OP(=O)(O)O)[C@@H](OP(=O)(O)O)[C@H](OP(=O)(O)O)[C@@H](OP(=O)(O)O)[C@H]1OP(=O)(O)O [InsP6, myo-inositol hexakisphosphate]
inhibition of E-selectin-Ig binding [1]: failed to inhibit the binding of E-selectin-lg at concentrations up to 5 mM; also recorded: did not block E-selectin-lg binding | PMN adhesion to E-COS [2]: not to E-COS | inhibition of PMN accumulation, single subcutaneous injection ([3]; 40-100 μmol/kg s.c. 3 min after thioglycollate): 46-59% | reduction in PMN recovered from the peritoneal cavity ([3]; i.v. at 40 and 80 min, total 80 μmol/kg, PMN at 120 min, 3 experiments): 58±3% | effect in zymosan-induced peritoneal inflammation ([4]; relative to thioglycollate model): equally effective | number of peripheral blood PMN [5]: not modified | toxic effects at decreased infusion rate and lower doses ([6]; 40 μmol/kg, decreased rate of infusion): These effects were avoided | duration of transient toxic effects ([6]; rapid i.v. (5-10 sec), >50 μmol/kg): 1 to 3 min | toxic effects upon rapid i.v. injection ([6]; rapid i.v. (5-10 sec), concentrated solutions >50 μmol/kg): some transient (duration 1-3 min) toxic effects (unsteady gate, spasms) | harmful effect on repeated protocol ([6]; repeated multiple times in the same animal, 40 μmol/kg): without apparent harmful effect | toxic effects, subcutaneous ([6]; s.c., doses up to 200 μmol/kg): no toxic effects were observed

O=S(=O)(O)O[C@H]1[C@H](OS(=O)(=O)O)[C@@H](OS(=O)(=O)O)[C@H](OS(=O)(=O)O)[C@@H](OS(=O)(=O)O)[C@H]1OS(=O)(=O)O [InsS6, myo-inositol hexakissulfate]
inhibition of E-selectin-Ig binding [1]: failed to inhibit the binding of E-selectin-lg at concentrations up to 5 mM | inhibition of PMN accumulation, thioglycollate model ([3]; 400 μmol/kg, 1 experiment): 33±13% | inhibition of PMN accumulation, zymosan model ([4]; 400 μmol/kg, 1 experiment): 31±11%
